Values joined by “and” are separate entries in the source; they are usually repeats but may differ in a detail not shown here. Equal entries are not always repeated. Where two headings read alike, the source gives them in different places.
Tests used:
[1] = In vitro-in vivo extrapolation (IVIVE) to estimate Css, rat
Description: Intrinsic hepatic clearance (Clint) and fraction unbound in plasma (fup) were calculated from the experimental point estimate data as described in Dobreniecki et al.. Steady-state concentrations (Css) were derived based on zero-order uptake of an assumed daily dose from the gut (assuming 100% intestinal bioavailability) but considering hepatic clearance and non-metabolic renal clearance. Renal clearance was calculated using the glomerular filtration rate (a species-dependent constant) and the fraction unbound in blood (fub), estimated by adjusting the experimental fup for blood/plasma partitioning. The Css calculations, along with underlying species-specific physiologic scalars, are detailed in SI Texts S6 and S7. […]
hepatocytes). In equation (C), the scalar 2000 is used to adjust the assay cell number to be consistent with units of 1 million cells in the Clint equation.
Text S7 In Vitro-In Vivo Extrapolation (IVIVE) Calculations
The pharmacokinetic equation used to estimate expected steady-state concentrations (Css) is based on zero-order uptake of a daily dose from the gut (assuming 100% bioavailability) with both nonmetabolic renal clearance (Clrenal) and hepatic clearance (Clhepatic) (Equation D). The chemical input rate (ko) is the product of the intake dosage and the model body weight; this represents the numerator of Equation D. The Clrenal calculation is shown in the first part of the denominator of Equation D; it is the product of the species-dependent glomerular filtration rate (GFR) and the unbound fraction in blood (fub) of the parent compound. The Clhepatic calculation is shown in the second part of the denominator of Equation D; it is the product of the species-dependent liver blood flow constant, the fub of the parent compound, and the experimentally derived intrinsic clearance (shown in Equation C) divided by the sum of these three values. All values used in Equation D are for first-order conditions of metabolism in the […]

[2] = set-up: method as in Smeltz et al. [60]; conditions: ref Smeltz et al. [60], cited from earlier work
[3] = Liver dosimetry of PFHxSA and PFHxS by targeted LC/MS/MS; assay type: in vivo, rat; conditions: for concentration at 24 h: Sprague Dawley (Crl:CD(SD)), rat, liver, oral
Text: The plasma and liver samples for this investigation were provided by Mutlu et al.. The study design, including detailed descriptions of animal handling, procedures for dosing, clinical observations, termination, and collection of tissues, is reported elsewhere and is consistent with the ARRIVE guidelines. Briefly, male and female Sprague Dawley (SD) rats (Crl:CD(SD)) (n = 48/sex, 96 total) were purchased from Charles River Laboratory (Raleigh, NC, USA) and allowed to acclimate for ≥5 days before initial dosing. Rats were 8–10 weeks old at the time of exposure. PFHxSA dosing solutions in corn oil were prepared on Day 0 and used over the course of the study. Rats of both sexes (n = 5/sex, dose, and time point, plus eight vehicle controls per sex) were dosed by oral gavage (5 mL/kg body weight) once daily for five days. […] The formulation concentrations decreased from 100 mg/kg/day at half-log10 intervals until the lowest dose level, which was a full log10 interval below the next higher dose, giving eight dose levels (0.01 to 100 mg/kg/day or 0.025 µmol/kg/day to 250 µmol/kg/day) in addition to vehicle controls. Doses were administered in randomized order within ± 1 h on each day of dosing. […] Rats were euthanized 24 h after the last dose. Blood was collected via cardiac puncture with tripotassium ethylene diamine tetraacetic acid (K3EDTA) as an anti-coagulant and centrifuged to collect cell-free plasma. Liver was collected and flash-frozen in liquid nitrogen. Liver, plasma, and dosing formulation samples were frozen at the USEPA Center for Computational Toxicology and Exposure (CCTE), Durham, NC, USA. Tissue samples (plasma and liver, n = 96 each) were stored at ≤−70 °C prior to extraction; dosing formulation samples (n = 9) were stored at −20 °C.
Detailed information on solvents and standards used for targeted LC/MS/MS of PFHxSA and PFHxS can be found in SI Text S1 and SI Table S1. Plasma and liver preparations were modified from Conley et al.. Briefly, aliquots of plasma (25 µL) and liver (~10 mg) were spiked with PFOSA as an internal standard, as no isotope-labeled PFHxSA was available. Sample batches included up to 96 samples along with an MB, CCV, and LCS for QC. Commercial plasma (mixed-sex SD rat plasma) and liver (mixed-sex SD rat) were obtained from BioIVT (Westbury, NY, USA). Cold acetonitrile (ACN) with 0.1 M formic acid was used to precipitate proteins. Liver and plasma samples were prepared similarly, except that the livers were homogenized after solvent addition. Plasma samples were vortexed to mix before being chilled at −20 °C, after which samples were centrifuged at 5 °C and 10,000× g. Liver samples were chilled at −80 °C, then homogenized using an Omni International (Kennesaw, GA, USA) Bead Ruptor 24. Liver homogenates were centrifuged at 26,000× g and 5 °C. Supernatants from the extraction of both matrices were removed and stored at −20 °C until analysis. Refer to SI Text S4 for additional experimental details and information on calibration and QC parameters for quantitation of PFHxSA.
Targeted LC/MS/MS of PFHxSA was performed on a Sciex 4000 QTRAP LC/MS/MS system operated in negative ESI mode with MRM scanning. A Restek (Bellefonte, PA, USA) Raptor Polar X (100 mm × 2 mm, 2.7 µm) column was used for liquid chromatography. Isocratic elution occurred over 10 min with a 30:70 ratio of mobile phase A (10 mM ammonium formate): mobile phase B (60:40 ACN: methanol). Both mobile phases included 0.05% formic acid. The LOQs for PFHxSA were 0.100 µM in plasma and 0.351 µM in liver. Additional details of the instrument method parameters for targeted analysis of PFHxSA are provided in SI Table S5. The MRM transitions for the PFHxSA method are provided in SI Table S6. […]

NS(=O)(=O)C(F)(F)C(F)(F)C(F)(F)C(F)(F)C(F)(F)C(F)(F)F [PFHxSA, Perfluorohexanesulfonamide]
Css (steady-state concentration) ([1]; Rat, IVIVE-derived, assumes 1 mg/kg/day exposure): 138 µM
CL renal ([1]; Rat, non-metabolic, GFR x fub, read-out: Clrenal (renal clearance) (converted)): 0.00167 mL/min
IVIVE-derived Css higher than in vivo plasma concentration ([1]; rat, 1 mg/kg/day, female and male rat plasma, respectively): 6.5–12.1 fold and 6.5–12 fold
fup (fraction unbound in plasma) ([2]; Human plasma): 0.0004 ^1
fub (fraction unbound in blood) ([2]; Human): 0.0007 ^1
PFHxSA Female Liver Conc. (wet weight) ([3]; PFHxSA 0.1 mg/kg/day oral 5 days, female, individual rats): 0.491 µM and 0.599 µM and 0.338 µM and 0.434 µM
PFHxSA Male Liver Conc. (wet weight) ([3]; PFHxSA 0.1 mg/kg/day oral 5 days, male, individual rats): 0.191 ng/mg and 0.0842 ng/mg and 0.479 µM and 0.211 µM and 0.156 ng/mg and 0.391 µM and 0.746 µM and 0.503 µM and 0.298 ng/mg and 0.201 ng/mg
PFHxSA Female Liver Conc. (wet weight) ([3]; PFHxSA 0.3 mg/kg/day oral 5 days, female, individual rats): 1.47 µM and 1.96 µM and 1.26 µM and 1.74 µM
PFHxSA Male Liver Conc. (wet weight) ([3]; PFHxSA 0.3 mg/kg/day oral 5 days, male, individual rats): 0.462 ng/mg and 0.399 ng/mg and 1.26 µM and 0.604 µM and 1.30 µM and 1.16 µM and 1.00 µM and 0.503 ng/mg
PFHxSA Female Liver Conc. (wet weight) ([3]; PFHxSA 1 mg/kg/day oral 5 days, female, individual rats): 2.91 µM and 2.52 µM and 4.17 µM and 4.76 µM and 6.64 µM
PFHxSA Male Liver Conc. (wet weight) ([3]; PFHxSA 1 mg/kg/day oral 5 days, male, individual rats): 0.846 ng/mg and 1.00 ng/mg and 1.09 ng/mg and 1.18 ng/mg and 2.12 µM and 2.51 µM and 2.73 µM and 2.97 µM
PFHxSA Female Liver Conc. (wet weight) ([3]; PFHxSA 3 mg/kg/day oral 5 days, female, individual rats): 7.94 µM and 4.86 µM and 6.40 µM and 9.55 µM and 10.8 µM
PFHxSA Male Liver Conc. (wet weight) ([3]; PFHxSA 3 mg/kg/day oral 5 days, male, individual rats): 1.92 ng/mg and 1.86 ng/mg and 1.63 ng/mg and 2.14 ng/mg and 4.81 µM and 4.67 µM and 4.08 µM and 5.36 µM
PFHxSA Female Liver Conc. (wet weight) ([3]; PFHxSA 10 mg/kg/day oral 5 days, female, individual rats): 6.97 µM and 8.65 µM and 7.58 µM and 9.86 µM
PFHxSA Male Liver Conc. (wet weight) ([3]; PFHxSA 10 mg/kg/day oral 5 days, male, individual rats): 5.65 ng/mg and 3.24 ng/mg and 4.53 ng/mg and 4.26 ng/mg and 14.2 µM and 8.13 µM and 11.4 µM and 10.7 µM
PFHxSA Female Liver Conc. (wet weight) ([3]; PFHxSA 30 mg/kg/day oral 5 days, female, individual rats): 15.8 ng/mg and 7.72 ng/mg and 10.1 ng/mg and 8.88 ng/mg and 23.9 µM and 39.6 µM and 19.4 µM and 25.2 µM and 22.3 µM
PFHxSA Male Liver Conc. (wet weight) ([3]; PFHxSA 30 mg/kg/day oral 5 days, male, individual rats): 4.86 ng/mg and 3.36 ng/mg and 4.47 ng/mg and 6.25 ng/mg and 12.2 µM and 8.43 µM and 11.2 µM and 15.7 µM
PFHxSA Female Liver Conc. (wet weight) ([3]; PFHxSA 100 mg/kg/day oral 5 days, female, individual rats): 20.7 ng/mg and 12.3 ng/mg and 37.7 ng/mg and 20.9 ng/mg and 16.1 ng/mg and 52.0 µM and 30.8 µM and 94.6 µM and 52.3 µM and 40.3 µM
PFHxSA Male Liver Conc. (wet weight) ([3]; PFHxSA 100 mg/kg/day oral 5 days, male, individual rats): 14.9 ng/mg and 19.0 ng/mg and 6.87 ng/mg and 4.89 ng/mg and 5.61 ng/mg and 37.4 µM and 47.6 µM and 17.2 µM and 12.3 µM
concentration at 24 h ([3]; female, 0.1 mg/kg/day, PFHxSA 0.1 mg/kg/day oral 5 days, female, individual rats, read-out: PFHxSA Female Liver Conc. (wet weight)): 436 nM and 174 ng/g
concentration at 24 h ([3]; female, 0.3 mg/kg/day, PFHxSA 0.3 mg/kg/day oral 5 days, female rats, mean ± SD, read-out: PFHxSA Female Liver Conc.): 1.69 ± 0.32 µM
concentration at 24 h ([3]; female, 0.3 mg/kg/day, PFHxSA 0.3 mg/kg/day oral 5 days, female, individual rats, read-out: PFHxSA Female Liver Conc. (wet weight)): 2.03 µM and 811 ng/g
concentration at 24 h ([3]; female, 1 mg/kg/day, PFHxSA 1 mg/kg/day oral 5 days, female rats, mean ± SD, read-out: PFHxSA Female Liver Conc.): 4.2 ± 1.6 µM
concentration at 24 h ([3]; female, 3 mg/kg/day, PFHxSA 3 mg/kg/day oral 5 days, female rats, mean ± SD, read-out: PFHxSA Female Liver Conc.): 7.91 ± 2.4 µM
concentration at 24 h ([3]; female, 10 mg/kg/day, PFHxSA 10 mg/kg/day oral 5 days, female rats, mean ± SD, read-out: PFHxSA Female Liver Conc.): 8.41 ± 1.1 µM
concentration at 24 h ([3]; female, 10 mg/kg/day, PFHxSA 10 mg/kg/day oral 5 days, female, individual rats, read-out: PFHxSA Female Liver Conc. (wet weight)): 8.98 µM and 3580 ng/g
concentration at 24 h ([3]; female, 30 mg/kg/day, PFHxSA 30 mg/kg/day oral 5 days, female rats, mean ± SD, read-out: PFHxSA Female Liver Conc.): 26.1 ± 7.9 µM
concentration at 24 h ([3]; male, 0.3 mg/kg/day, PFHxSA 0.3 mg/kg/day oral 5 days, male rats, mean ± SD, read-out: PFHxSA Male Liver Conc.): 1.06 ± 0.28 µM
concentration at 24 h ([3]; male, 1 mg/kg/day, PFHxSA 1 mg/kg/day oral 5 days, male rats, mean ± SD, read-out: PFHxSA Male Liver Conc.): 2.48 ± 0.39 µM
concentration at 24 h ([3]; male, 1 mg/kg/day, PFHxSA 1 mg/kg/day oral 5 days, male, individual rats, read-out: PFHxSA Male Liver Conc. (wet weight)): 821 ng/g and 2.06 µM
concentration at 24 h ([3]; male, 3 mg/kg/day, PFHxSA 3 mg/kg/day oral 5 days, male rats, mean ± SD, read-out: PFHxSA Male Liver Conc.): 4.67 ± 0.47 µM
concentration at 24 h ([3]; male, 3 mg/kg/day, PFHxSA 3 mg/kg/day oral 5 days, male, individual rats, read-out: PFHxSA Male Liver Conc. (wet weight)): 1780 ng/g and 4.45 µM
concentration at 24 h ([3]; male, 10 mg/kg/day, PFHxSA 10 mg/kg/day oral 5 days, male rats, mean ± SD, read-out: PFHxSA Male Liver Conc.): 10.6 ± 2.5 µM
concentration at 24 h ([3]; male, 10 mg/kg/day, PFHxSA 10 mg/kg/day oral 5 days, male, individual rats, read-out: PFHxSA Male Liver Conc. (wet weight)): 3370 ng/g and 8.44 µM
concentration at 24 h ([3]; male, 30 mg/kg/day, PFHxSA 30 mg/kg/day oral 5 days, male rats, mean ± SD, read-out: PFHxSA Male Liver Conc.): 11.6 ± 2.6 µM
concentration at 24 h ([3]; male, 30 mg/kg/day, PFHxSA 30 mg/kg/day oral 5 days, male, individual rats, read-out: PFHxSA Male Liver Conc. (wet weight)): 4320 ng/g and 10.8 µM
